Results reported in paper PMC8927147, “Global profiling of regulatory elements in the histone benzoylation pathway” (Nature Communications, 2022).
Positions count from the first letter of the chain named. Peptide text beside a SMILES is read from it. * marks the point of attachment. Bz = O=C(c1ccccc1)*

Key:
[1] = molecular target: T1, Sth1BD (Saccharomyces cerevisiae, UniProt P32597); experiment: ITC binding of H3 peptides to Sth1 bromodomain
T1 construct: Sth1BD (residues 1248-1359); 6*His-Sumo (N, cleaved yes); made in house; host or cells: Escherichia coli Rosetta
T1 sequence (P32597 1248-1359): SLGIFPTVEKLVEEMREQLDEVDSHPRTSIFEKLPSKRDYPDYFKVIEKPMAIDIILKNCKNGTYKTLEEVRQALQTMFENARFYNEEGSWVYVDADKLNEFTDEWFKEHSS
Experimental: (§1) ITC titrations were performed using a MicroCal ITC200 system (GE Healthcare, USA) at 20 °C. For ITC measurement, peptides and proteins were dialyzed into the same buffer (25 mM Tris-HCl, pH 8.0, 150 mM NaCl). […] For reader-related ITC experiments, peptides at 2.0 mM in the syringe were titrated into Taf14YEATS/Sas5YEATS/Sth1BD at 0.1–0.2 mM in the sample cell. Each titration consisted of 20 successive injections. The titration curves were processed using the Origin 7.0 software program (OriginLab) according to the one-binding-site fitting model. Each titration was repeated twice, and one representative plot was shown in the paper. The dissociation constants (Kd), enthalpy changes (ΔH), and fitting errors were derived from one representative ITC plot.

[2] = molecular target: T2, Sth1BD A1329C (Saccharomyces cerevisiae, UniProt P32597, A1329C); experiment: ITC binding of H3K14bz peptide to Sth1BD A1329C mutant
T2 construct: Sth1BD (residues 1248-1359); 6*His-Sumo (N, cleaved yes); made in house; host or cells: Escherichia coli Rosetta
T2 sequence (P32597 1248-1359 A1329C): T1 sequence (P32597 1248-1359) with A82C
Experimental: as §1

[3] = molecular target: T3, Sas5YEATS (Saccharomyces cerevisiae, UniProt Q99314); experiment: ITC binding of H3 peptides to Sas5YEATS
T3 construct: 6*His-Sumo (N, cleaved yes); made in house; host or cells: Escherichia coli Rosetta
T3 sequence (Q99314 2-139): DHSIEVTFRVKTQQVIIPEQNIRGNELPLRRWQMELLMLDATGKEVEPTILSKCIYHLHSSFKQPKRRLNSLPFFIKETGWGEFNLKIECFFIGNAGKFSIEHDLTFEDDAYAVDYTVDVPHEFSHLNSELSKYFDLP

[4] = system: Gcn5-Ada2; experiment: DTNB acylation activity assay of Gcn5-Ada2; type: biochemical, Saccharomyces cerevisiae; conditions: 250 μM H3 1-18 peptide, pH 7.8, 30 °C
Experimental: Kinetic measurements comparing rates of acetylation and benzoylation were performed using the 5,5′-dithiobis-(2-bitrobenzoic acid) (DTNB, D218200-1G, Sigma) assay. Reactions contained 2 μM Gcn5-Ada2, 250 μM H3 peptide amino acids 1-18 ([…]), 100 mM HEPES pH7.8, 50 mM NaCl and 500 μM acetyl-CoA or benzoyl-CoA. Each reaction was incubated for 5 min at 30 °C before adding acyl-CoA to start the reaction. The reaction was quenched at the indicated time points by adding two volumes of freshly prepared quenching buffer (3.2 M guanidine-HCl, 100 mM sodium phosphate pH 6.8). The samples were added to one volume of 4 mM DTNB dissolved in 100 mM sodium phosphate (pH 6.8) and transferred to a 384-well polystyrene clear-bottom plate (CORNING, 3680), and the absorbance at 412 nm was measured in a Bio-TEK plate reader. Absorbances were converted to concentrations using a standard curve generated by HSCOA standards. The acetylation reaction was quenched after 0.5, 1.0, 1.5, 2.0, and 2.5 min, and the benzoylation reaction was quenched after 1, 2, 3, and 4 h. All acylation rates were corrected by subtracting the rate of acyl-CoA consumption by Gcn5-Ada2 in the absence of peptide. The acetylation assays were performed in triplicate, but the benzoylation assay was not repeated due to the limitation of materials.

[5] = system: BY4742 cells; experiment: Western blot of histone Kbz and Kac levels in yeast treated with sodium benzoate; type: cell-based, Saccharomyces cerevisiae; conditions: BY4742 cells in YPD at log phase, sodium benzoate added for 6 h, histones extracted; pan anti-Kbz and anti-Kac
Description: Anti-Kbz (PTM Biolabs Inc., PTM-762, 1:1000, Lot^# 1314381619I926), anti-Kac (Cell signal, 9441 S, 1:1000, Lot^# 14), anti-H3N (Active motif, 39763, 1:700, Lot^# 20418023), anti-H4 (Active motif, 61521, 1:3000, Lot^# 31416005), and anti-tubulin (Sigma, T6199, 1:3000, Lot^# 048M4751V) antibodies were used in this study. The HRP secondary antibody and the fluorescent secondary antibodies were used: Peroxidase AffiniPure Goat Anti-Mouse IgG (Jackson ImmunoResearch, 1:5000, 115-035-003), Peroxidase AffiniPure Goat Anti-Rabbit IgG (Jackson ImmunoResearch, 1:5000, 111-035-003), IRDye 800CW goat anti-rabbit IgG (LI-COR P/N 923-32211, 1:5000, Lot^# D00304-15) and IRDye 680RD goat anti-Mouse IgG (LI-COR P/N 926-68070, 1:10000, Lot^# D01014-04). The fluorescent western blots were detected on Odyssey CLx (LI-COR) and quantified by Image Studio (ver. 5.2.5).
Typically, 100 mg yeast cell pellets were harvested and suspended in 1 ml buffer A (1 M sorbitol, 50 mM Tris-HCl, pH 7.5, 5 mM MgCl2, 5 mM 2-mercaptoethanol) and centrifuged for 5 min at 900 g. Then, the pellet was resuspended in 1 ml buffer A with 60 μl zymolyase. […] The concentration of histones was measured by a BCA Protein Assay Kit (TIANGEN, PA115-01, China). The samples were analyzed by western blot or by mass spectrometry.

Work on `CC(C)C[C@H](NC(=O)[C@H](CCC(N)=O)NC(=O)[C@H](CCCCN)NC(=O)[C@H](CCCNC(=N)N)NC(=O)[C@@H]1CCCN1C(=O)[C@H](C)NC(=O)[C@H](CCCCNC(=O)c1ccccc1)NC(=O)CNC(=O)CNC(=O)[C@@H](NC(=O)[C@H](CO)NC(=O)[C@H](CCCCN)NC(=O)[C@H](CCCNC(=N)N)NC(=O)[C@H](C)NC(=O)[C@@H](N)[C@@H](C)O)[C@@H](C)O)C(=O)N[C@@H](C)C(=O)N[C@@H](CO)C(=O)N[C@@H](Cc1ccc(O)cc1)C(=O)O` [H3K14bz] (H-TARKSTGGK(Bz)APRKQLASY-OH) yielded a Kd [1] of 88.5 ± 12.4 µM and a Kd [2] of 187 ± 29.8 µM.

In the case of `CC(C)C[C@H](NC(=O)[C@H](CCC(N)=O)NC(=O)[C@@H](N)CCCCN)C(=O)N[C@@H](C)C(=O)N[C@@H](CO)C(=O)N[C@@H](CCCCN)C(=O)N[C@@H](C)C(=O)N[C@@H](C)C(=O)N[C@@H](CCCNC(=N)N)C(=O)N[C@@H](CCCCNC(=O)c1ccccc1)C(=O)N[C@@H](CO)C(=O)N[C@@H](C)C(=O)N1CCC[C@H]1C(=O)N[C@@H](CO)C(=O)N[C@H](C(=O)NCC(=O)NCC(=O)N[C@H](C(=O)N[C@@H](CCCCN)C(=O)N[C@@H](Cc1ccc(O)cc1)C(=O)O)C(C)C)[C@@H](C)O` [H3K27bz] (H-KQLASKAARK(Bz)SAPSTGGVKY-OH), the Kd [1] is reported as 386 µM and the Kd [3] is reported as 92.6 ± 5.63 µM.

For `CC(=O)SCCNC(=O)CCNC(=O)[C@H](O)C(C)(C)COP(=O)(O)OP(=O)(O)OC[C@H]1O[C@@H](n2cnc3c(N)ncnc32)[C@H](O)[C@@H]1OP(=O)(O)O` [acetyl-CoA], the acetylation rate ([4]; 2 μM Gcn5-Ada2, 500 μM acetyl-CoA, n = 3) was 10.35 µM/min.

For `CC(C)(COP(=O)(O)OP(=O)(O)OC[C@H]1O[C@@H](n2cnc3c(N)ncnc32)[C@H](O)[C@@H]1OP(=O)(O)O)[C@@H](O)C(=O)NCCC(=O)NCCSC(=O)c1ccccc1` [benzoyl-CoA], the benzoylation rate ([4]; 2 μM Gcn5-Ada2, 500 μM benzoyl-CoA, single experiment) was 1.19 µM/h.

For `O=C([O-])c1ccccc1.[Na+]` [sodium benzoate], the “effect on histone Kbz and Kac signals (western blot)” value [5] was “significantly enhanced the Kbz and Kac signals on yeast histones in a dose-dependent manner”.
